Results taken from patent US20090318354A1, “Use of at least one isoform of progesterone receptor membrane component 1 (PGRMC1)” (PROTEOSYS AG, priority 2006, published 2009).

Assays:
MCF7 breast cancer cells = assay: ATP-TCA cell viability assay in MCF7 cells and MCF7 cells stably expressing PGRMC1 WT or mutants; assay type: cell-based, human
AKT = details: S56A/S180A and Y179F/S180A mutants, H2O2 even at 1 mM
Text: Antibodies employed were specific for phosphorylated AKT (top), for the polypeptide backbone of AKT (middle), or for the HA-tag on the respective exogenously expressed PGRMC1 constructs.

[1] = system: breast cancer exhibiting a positive ER status; details: patients suffering from breast cancer exhibiting a positive ER status; cited from earlier work

estrogen
viability of cells (MCF7 breast cancer cells; estrogen 10^-9 M added to RPMI with charcoal-treated FCS, 5 days): improved | rescue of impaired viability in the presence of tamoxifen (MCF7 breast cancer cells; estrogen 10^-9 M plus tamoxifen 10^-8 M): could not rescue

CC(=O)[C@H]1CC[C@H]2[C@@H]3CCC4=CC(=O)CC[C@]4(C)[C@H]3CC[C@]12C [Progesterone, progesterone]
proliferative effect relative to other cells (MCF7 breast cancer cells; PGRMC1-WT cell line, progesterone 10^-7 M, 5 days, charcoal-treated FCS): marginal proliferative effect | viability of cells (MCF7 breast cancer cells; cells generally, progesterone 10^-7 M, charcoal-treated FCS, 5 days): not affected greatly

OO [H2O2, hydrogen peroxide]
cell viability (MCF7 breast cancer cells; MCF7 cells, 50 μM H2O2, RPMI with 10% FCS): reduced cell viability | phosphorylation of AKT upon H2O2 treatment (AKT): neither of the mutants that survived H2O2 treatment in FIG. 10B exhibited phosphorylation of AKT

methyl-β-cyclodextrin
cell viability relative to MCF7 control cells (MCF7 breast cancer cells; cells expressing all PGRMC1 mutants except S180A, 5 mM methyl-beta-cyclodextrin, 2 h, charcoal-treated FCS): drastically reduced cell viability

CC/C(=C(\c1ccccc1)c1ccc(OCCN(C)C)cc1)c1ccccc1 [tamoxifen]
cases in which treatment is effective [1]: approximately 50% | resistance of clone to Tamoxifen (MCF7 breast cancer cells; clone S56A/S180A, comparable to wild-type PGRMC1 control or native MCF7 cells): exhibited resistance | susceptibility of clone to Tamoxifen (MCF7 breast cancer cells; clone S180A): highly susceptible | viability of cells (MCF7 breast cancer cells; tamoxifen 10^-8 M, charcoal-treated FCS, 5 days): reduced viability

CC[C@H](C)C(=O)O[C@H]1C[C@@H](C)C=C2C=C[C@H](C)[C@H](CC[C@@H]3C[C@@H](O)CC(=O)O3)[C@H]21 [lovastatin]
viability (MCF7 breast cancer cells; PGRMC1 Y179F/S180A mutant, lower concentrations of lovastatin): improved viability | viability (MCF7 breast cancer cells; all cell lines, high levels of lovastatin, 2 days, charcoal-treated FCS): reduced
